Molecules are shown by their SMILES.

This assay addresses TNFα trimer (Homo sapiens, UniProt P01375). Briefly: TNFα FP Competitive Binding Assay. The note with it: FP binding assay; 20 nM TNFα trimer, 1 nM OregonGreen488 probe; read-out: TNF IC50. In a few lines:
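Fluorescence polarization competition: 20 nM TNFα trimer with 1 nM fluorescein-labelled probe in HEPES/NaCl/EDTA/Triton X-100 buffer, compound in 12-point 1:3 dilutions (final top 338 μM or 100 μM). Incubated 18-24 h, background-subtracted mP read, variable-slope dose-response fitting.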

TNFα trimer, sequence (P01375 77-233 limits assumed): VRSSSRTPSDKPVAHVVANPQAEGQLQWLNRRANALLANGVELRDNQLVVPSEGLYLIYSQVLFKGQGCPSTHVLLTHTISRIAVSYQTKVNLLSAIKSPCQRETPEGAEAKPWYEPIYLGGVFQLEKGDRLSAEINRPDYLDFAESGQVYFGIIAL

As for `CC(C)[C@H](N)C(=O)OCC(=O)N1CCN(c2ncc(-c3ccc4c(=O)n(C)n(Cc5ccccc5OC(F)F)c4c3)cn2)C[C@H]1C` [Example 14.12], the 50% inhibitory concentration (IC50) (usually the concentration that inhibits the measured activity by half) is less than 1 µM.
Turning to `CC(C)[C@@H](N)C(=O)OCC(=O)N1CCN(c2ncc(-c3ccc4c(=O)n(C)n(Cc5ccccc5OC(F)F)c4c3)cn2)C[C@H]1C` [Example 14.13], the IC50 was less than 1 µM.
As to `Cc1ccc(OC(F)F)c(Cn2c3cc(-c4cnc(N5CCN(C(=O)COC(=O)[C@@H](N)C(C)C)[C@H](C)C5)nc4)ccc3c(=O)n2C)c1` [Example 14.14], the IC50 was less than 1 µM.
Turning to `C[C@H](N)C(=O)OCc1ccc(OC(F)F)c(Cn2c3cc(-c4cnc(N5CCN6C(=O)NC[C@@H]6C5)nc4)ccc3c(=O)n2C)c1` [Example 14.15], the IC50 is less than 1 µM.
Next, `CC(C)[C@H](N)C(=O)OCc1ccc(OC(F)F)c(Cn2c3cc(-c4cnc(N5CCN6C(=O)NC[C@@H]6C5)nc4)ccc3c(=O)n2C)c1` [Example 14.16]: less than 1 µM; `Cn1c(=O)c2ccc(-c3cnc(N4CCOCC4)nc3)nc2n1Cc1ccccc1OC(F)F` [Example 15, 1-(2-(Difluoromethoxy)benzyl)-2-methyl-6-(2-morpholinopyrimidin-5-yl)-1H-pyrazolo[3,4-b]pyridin-3(2H)-one]: 1 to 10 µM; `Cc1ccc(OC(F)F)c(Cn2c3cc(-c4cnc(N5CCN6C(=O)NC[C@H]6C5)nc4)ccc3c(=O)n2C)c1` [Example 15.1]: less than 1 µM.
Regarding `Cn1c(=O)c2ccc(-c3cnc(C(C)(C)O)nc3)nc2n1Cc1ccccc1OC(F)F` [Example 16, 1-(2-(Difluoromethoxy)benzyl)-6-(2-(2-hydroxypropan-2-yl)pyrimidin-5-yl)-2-methyl-1H-pyrazolo[3,4-b]pyridin-3(2H)-one], the half-maximal inhibitory concentration (IC50) lay in the range of 1 to 10 µM.
For `Cn1c(=O)c2ccc(-c3cnc(N4CCN5C(=O)NC[C@@H]5C4)nc3)cc2n1Cc1cc(CO)ccc1OC(F)F` [Example 16.1, (R)-7-(5-(1-(2-(difluoromethoxy)-5-(hydroxymethyl)benzyl)-2-methyl-3-oxo-2,3-dihydro-1H-indazol-6-yl)pyrimidin-2-yl)hexahydroimidazo[1,5-a]pyrazin-3(2H)-one], the IC50 is less than 1 µM.
Turning to `CN1CCC(Nc2ncc(-c3ccc4c(=O)n(C)n(Cc5cc(CO)ccc5OC(F)F)c4c3)cn2)C1=O` (centres unmarked) [Example 16.2], the IC50 lay within 1 to 10 µM.
The figure for `Cn1c(=O)c2ccc(-c3cnc(N4CCN5C(=O)OC[C@@H]5C4)nc3)cc2n1Cc1cc(CO)ccc1OC(F)F` [Example 16.3, (S)-7-(5-(1-(2-(difluoromethoxy)-5-(hydroxymethyl)benzyl)-2-methyl-3-oxo-2,3-dihydro-1H-indazol-6-yl)pyrimidin-2-yl)tetrahydro-1H-oxazolo[3,4-a]pyrazin-3(5H)-one] is less than 1 µM; for `Cn1c(=O)c2ccc(-c3cnc(N4CCN5C(=O)OC[C@H]5C4)nc3)cc2n1Cc1cc(CO)ccc1OC(F)F` [Example 16.4] it is less than 1 µM; for `Cn1c(=O)c2ccc(-c3cnc(NC4CCNC(=O)C4)nc3)cc2n1Cc1cc(CO)ccc1OC(F)F` (centres unmarked) [Example 16.5] it is less than 1 µM.
`Cn1c(=O)c2ccc(-c3cnc(NC4CCNC4=O)nc3)cc2n1Cc1cc(CO)ccc1OC(F)F` (centres unmarked) [Example 16.6]: the half-inhibitory concentration (IC50) lay within 1 to 10 µM.
With `Cn1c(=O)c2ccc(-c3cnc(C(C)(C)O)nc3)cc2n1Cc1cc(CO)ccc1OC(F)F` [Example 16.7], the half-inhibitory concentration (IC50) was less than 1 µM.
The figure for `CC(=O)N1CCN(c2ncc(-c3ccc4c(=O)n(C)n(Cc5cc(CO)ccc5OC(F)F)c4c3)cn2)CC1` [Example 16.8] is less than 1 µM.
In the case of `CN1CCC(Nc2ncc(-c3ccc4c(=O)n(C)n(Cc5cc(CO)ccc5OC(F)F)c4c3)cn2)CC1=O` (centres unmarked) [Example 16.9], the IC50 is less than 1 µM.
For the compound `Cn1c(=O)c2ccc(-c3cnc(N4CCN5C(=O)NC[C@@H]5C4)nc3)cc2n1Cc1nc(CO)ccc1C(F)(F)F` [Example 16.10], the concentration for half-maximal inhibition (IC50) is less than 1 µM.
As to `Cn1c(=O)c2cnc(-c3cnc(N4CCOCC4)nc3)cc2n1Cc1ccccc1OC(F)F` [Example 17, 1-(2-(Difluoromethoxy)benzyl)-2-methyl-6-(2-morpholinopyrimidin-5-yl)-1H-pyrazolo[4,3-c]pyridin-3(2H)-one], the concentration for half-maximal inhibition (IC50) is more than 10 µM.
Regarding `Cc1ccc(OC(F)F)c(Cn2c3cc(-c4cnc(C(C)(C)O)nc4)c(F)cc3c(=O)n2C)c1` [Example 17.1], the 50% inhibitory concentration (IC50) is less than 1 µM.
The figure for `Cc1ccc(OC(F)F)c(Cn2c3cc(-c4cnc(C(C)(C)O)nc4C)c(F)cc3c(=O)n2C)c1` [Example 17.2] is less than 1 µM.
Take `Cc1ccc(OC(F)F)c(Cn2c3cc(-c4cnc(N5CCN(C(=O)CO)C[C@H]5C)nc4)c(F)cc3c(=O)n2C)c1` [Example 17.3]: the half-inhibitory concentration (IC50) is less than 1 µM.
The figure for `Cc1ccc(OC(F)F)c(Cn2c3cc(-c4cnc(C(C)(C)CO)nc4)c(F)cc3c(=O)n2C)c1` [Example 17.4] is less than 1 µM; for `Cn1c(=O)c2ccc(-c3cnc(N4CCN5C(=O)NC[C@H]5C4)nc3)cc2n1Cc1cc(CO)ccc1OC(F)F` [Example 18, (S)-7-(5-(1-(2-(Difluoromethoxy)-5-(hydroxymethyl)benzyl)-2-methyl-3-oxo-2,3-dihydro-1H-indazol-6-yl)pyrimidin-2-yl)hexahydroimidazo[1,5-a]pyrazin-3(2H)-one] it is less than 1 µM.
In the case of `CC(=O)N1CCN(c2ncc(-c3ccc4c(=O)n(C)n(Cc5cc(C)ccc5SC(F)F)c4n3)cn2)C[C@H]1C` [Example 18.1], the IC50 was less than 1 µM.
As to `CC(=O)N1CCN(c2ncc(-c3ccc4c(=O)n(C)n(Cc5cc(C)ccc5OC(F)F)c4n3)cn2)C[C@H]1C` [Example 18.2], the 50% inhibitory concentration (IC50) was less than 1 µM.
Regarding `CC(=O)N1CCN(c2ncc(-c3ccc4c(=O)n(C)n(Cc5cc(C)ccc5Cl)c4n3)cn2)C[C@H]1C` [Example 18.3], the IC50 is less than 1 µM.
The figure for `C[C@@H]1C[C@@H](O)CCN1c1ncc(-c2ccc3c(=O)n(C)n(Cc4ccccc4OC(F)F)c3c2)cn1` [Example 19, 1-(2-(Difluoromethoxy)benzyl)-6-(2-((2R,4S)-4-hydroxy-2-methylpiperidin-1-yl)pyrimidin-5-yl)-2-methyl-1H-indazol-3(2H)-one] is less than 1 µM.
`CC(=O)N1CCN(c2ncc(-c3ccc4c(=O)n(C)n(Cc5nc(C)ccc5C(F)(F)F)c4c3)cn2)C[C@H]1C` [Example 19.1]: the IC50 is less than 1 µM.
As for `Cc1ccc(C(F)(F)F)c(Cn2c3cc(-c4cnc(N5CCN6C(=O)NC[C@H]6C5)nc4)ccc3c(=O)n2C)n1` [Example 19.2], the half-maximal inhibitory concentration (IC50) was less than 1 µM.
`Cc1ccc(C(F)(F)F)c(Cn2c3cc(-c4cnc(N5CCN(C(=O)CO)[C@H](C)C5)nc4)ccc3c(=O)n2C)n1` [Example 19.3]: the IC50 was less than 1 µM.
Turning to `Cc1ccc(C(F)(F)F)c(Cn2c3cc(-c4cnc(N5CCN6C(=O)OC[C@H]6C5)nc4)ccc3c(=O)n2C)n1` [Example 19.4], the IC50 was less than 1 µM.
As to `Cc1ccc(C(F)(F)F)c(Cn2c3cc(-c4cnc(N5CCN(C(=O)CO)C[C@H]5C)nc4)ccc3c(=O)n2C)n1` [Example 19.5], the IC50 is less than 1 µM.
Consider `Cn1c(=O)c2ccc(-c3cnc(C4(O)CCN(C=O)CC4)nc3)cc2n1Cc1ccccc1OC(F)F` [Example 20, 4-(5-(1-(2-(Difluoromethoxy)benzyl)-2-methyl-3-oxo-2,3-dihydro-1H-indazol-6-yl)pyrimidin-2-yl)-4-hydroxypiperidine-1-carbaldehyde], for which the IC50 was in the range of 1 to 10 µM.
On to `Cc1ccc(OC(F)F)c(Cn2c3cc(-c4cnc(N5CCC(C(N)=O)C5)nc4)ccc3c(=O)n2C)c1` (centres unmarked) [Example 20.1], for which the 50% inhibitory concentration (IC50) was in the range of 1 to 10 µM.
In the case of `Cc1ccc(OC(F)F)c(Cn2c3cc(-c4cnc(N5CCN6C(=O)OC[C@@H]6C5)nc4)ccc3c(=O)n2C)c1` [Example 20.2], the IC50 is less than 1 µM.
The figure for `CC(=O)N1CCN(c2ncc(-c3ccc4c(=O)n(C)n(Cc5cc(C)ccc5OC(F)F)c4c3)cn2)[C@H](C)C1` [Example 20.4] is less than 1 µM.
Turning to `CC[C@@H]1CN(C(C)=O)CCN1c1ncc(-c2ccc3c(=O)n(C)n(Cc4cc(C)ccc4OC(F)F)c3c2)cn1` [Example 20.5], the IC50 is less than 1 µM.
`C[C@H](N)C(=O)OCc1ccc(OC(F)F)c(Cn2c3cc(-c4cnc(N5CCN6C(=O)OC[C@@H]6C5)nc4)ccc3c(=O)n2C)c1` [Example 21, (S)-4-(Difluoromethoxy)-3-((2-methyl-3-oxo-6-(2-((S)-3-oxotetrahydro-1H-oxazolo[3,4-a]pyrazin-7(3H)-yl)pyrimidin-5-yl)-2,3-dihydro-1H-indazol-1-yl)methyl)benzyl 2-aminopropanoate]: the half-inhibitory concentration (IC50) is less than 1 µM.
Regarding `COCC(=O)N1CCN(c2ncc(-c3ccc4c(=O)n(C)n(Cc5cc(C)ccc5OC(F)F)c4c3)cn2)C[C@H]1C` [Example 21.1], the IC50 was less than 1 µM.
Next, `Cc1ccc(OC(F)F)c(Cn2c3cc(-c4cnc(N5CCN(C(=O)C6COC6)[C@H](C)C5)nc4)ccc3c(=O)n2C)c1` [Example 21.2]: less than 1 µM; `Cc1ccc(OC(F)F)c(Cn2c3cc(-c4cnc(N5CCN(C(=O)C6CCO6)[C@H](C)C5)nc4)ccc3c(=O)n2C)c1` (some centres unmarked) [Example 21.3]: less than 1 µM.
Consider `Cc1ccc(OC(F)F)c(Cn2c3cc(-c4cnc(N5CCN(C(=O)CC#N)[C@H](C)C5)nc4)ccc3c(=O)n2C)c1` [Example 21.4], for which the IC50 was less than 1 µM.
For `Cc1ccc(OC(F)F)c(Cn2c3cc(-c4cnc(N5CCC(O)CC5)nc4)ccc3c(=O)n2C)c1` [Example 22, 1-(2-(Difluoromethoxy)-5-methylbenzyl)-6-(2-(4-hydroxypiperidin-1-yl)pyrimidin-5-yl)-2-methyl-1H-indazol-3(2H)-one], the half-inhibitory concentration (IC50) was less than 1 µM.
`Cc1ccc(OC(F)F)c(Cn2c3cc(-c4cnc(N5CCN(C(=O)CO)CC5)nc4)ccc3c(=O)n2C)c1` [Example 22.1]: the concentration for half-maximal inhibition (IC50) is less than 1 µM.
In the case of `CC(=O)N1CCN(c2ncc(-c3ccc4c(=O)n(C)n(Cc5cc(C)ccc5OC(F)F)c4c3)cn2)[C@@H](C)C1` [Example 22.2], the IC50 was less than 1 µM.
Turning to `Cc1ccc(OC(F)F)c(Cn2c3cc(-c4cnc(N5CCN(C(=O)CO)[C@H](C)C5)nc4)ccc3c(=O)n2C)c1` [Example 22.3], the IC50 is less than 1 µM.

The record behind these values is patent publication US10160748B2 (AbbVie Inc., priority 2015, dated 2018).
